In patent US20050101623A1 (Pharmacia Corporation, priority 2003, published 2005):
Several values for one entry are separate records, joined by “and”; a condition that tells them apart may be missing. Equal values may be shown once. Where a name gives a salt, the structure may show the parent alone. Read-outs that look alike come from different tables or passages of the source.

Legend:
TNFα release, U937 cells = test: U937 Cell TNFα Release Assay (LPS, ELISA); type: cell-based, human; details: additional values are replicate IC50 experiments
Protocol: U937 Cell TNFα Release Assay
Differentiation of U937 to monocytic/macrophage-like cells is induced by the addition of phorbol12-myristate 13-acetate (Sigma) at final concentration of 20 ng/ml to a culture of U937 cells at ˜0.5 million cells/ml and incubated for 24 hrs. The cells are centrifuged, washed with PBS and resuspended in fresh media without PMA and incubated for 24 hrs. Cells adherent to the culture flask are harvested by scraping, centrifugation, and resuspended in fresh media to 2 million cells/ml, and 0.2 ml is aliquoted to each of 96 wells in flat-bottom plate. Cells are then incubated for an additional 24 hrs to allow for recovery. The media is removed from the cells, and 0.1 ml of fresh media is added per well. 0.05 ml of serially diluted compound or control vehicle (Media with DMSO) is added to the cells. […] Cells are incubated at 37° C. for 4 hrs. After 4 hrs incubation, supernatants are harvest and assayed by ELISA for the presence of TNFα.
Coating solution was aspirated the following day and wells were blocked with 1 mg/ml gelatin in PBS (plus 1× thimerasol) for 2 days at 4° C. Prior to using, wells were washed 3× with wash buffer (PBS with 0.05% Tween). Cultured media samples were diluted in EIA buffer (5 mg/ml bovine γ-globulin, 1 mg/ml gelatin, 1 ml/l Tween-20, 1 mg/ml thimerasol in PBS), added to wells (0.1 ml/well) in triplicate and allowed to incubate for 1.5 hr at 37° C. in a humidified chamber. […] TNF levels were quantitated from a recombinant human TNFα (R&D Systems #210-TA-010) standard curve using a quadratic parameter fit generated by SoftMaxPRO software. ELISA sensitivity was approximately 30 pg TNF/ml. IC50 values for compounds were generated using BioAssay Solver.

[1] = target: Recombinant MAPKAPK2 (MK-2) (Homo sapiens, UniProt P49137); test: Determination of MK-2 IC50 (phosphorylation of HSP-peptide, anion exchange resin capture assay); type: biochemical
[2] = tested on: collagen-induced arthritis; details: mouse; cited from earlier work
endotoxin-induced shock = details: murine model of endotoxin-induced shock; cited from earlier work
MK-2 = details: cited from earlier work
adjuvant arthritis = details: rat; cited from earlier work
[3] = Homo sapiens, U-937, 4 h, read-out: TNF Release Assay Avg. IC50, LPS 100 ng/ml, 4 hrs, differentiated U937 cells
[4] = additional values are replicate IC50 experiments, read-out: MK-2 Avg. IC50
[5] = MK-2 Avg. IC50, additional values are replicate IC50 experiments
[6] = Homo sapiens, U-937, 4 h, LPS 100 ng/ml, 4 hrs, differentiated U937 cells, read-out: TNF Release Assay Avg. IC50

Sequence of Recombinant MAPKAPK2 (MK-2) (P49137 whole entry, species assumed): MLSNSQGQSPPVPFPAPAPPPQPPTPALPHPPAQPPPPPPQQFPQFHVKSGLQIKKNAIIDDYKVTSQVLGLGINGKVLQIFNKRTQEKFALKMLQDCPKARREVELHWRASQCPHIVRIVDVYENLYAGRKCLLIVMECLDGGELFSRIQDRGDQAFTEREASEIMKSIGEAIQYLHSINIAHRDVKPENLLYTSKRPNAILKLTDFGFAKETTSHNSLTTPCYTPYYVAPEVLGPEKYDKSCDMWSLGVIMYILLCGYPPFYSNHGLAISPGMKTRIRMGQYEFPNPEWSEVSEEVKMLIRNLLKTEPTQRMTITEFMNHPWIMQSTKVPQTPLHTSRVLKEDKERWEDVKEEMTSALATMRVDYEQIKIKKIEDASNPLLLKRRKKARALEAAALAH

`COc1ccc2[nH]c3c(c2c1)C1CCN(C1)C3C(=O)OC12CC3CC(CC(C3)C1)C2` (centres unmarked) [compound 42] showed an IC50 (TNFα release, U937 cells; [3]) of 42.4 µM.
`COc1ccc2[nH]c3c(c2c1)C1CCN(C1)C3c1ccc[nH]1` (centres unmarked) [compound 50, 7-methoxy-1-(1H-pyrrol-2-yl)-3,4,5,10-tetrahydro-1H-2,5-methanoazepino[3,4-b]indole trifluoroacetate] showed an IC50 [1, 4] of over 200 µM.
Work on `COc1ccc2[nH]c3c(c2c1)C1CCN(C1)C3C(=O)OCC1CCCCC1` (centres unmarked) [No. 15, hydrochloride] yielded an IC50 [1, 4] of 38.5 µM.
In the case of `COc1ccc2[nH]c3c(c2c1)C1CCN(C1)C3C(N)=O` (centres unmarked) [compound 48, 7-methoxy-3,4,5,10-tetrahydro-1H-2,5-methanoazepino[3,4-b]indole-1-carboxamide], the IC50 [1, 5] is reported as over 200 µM and the IC50 (TNFα release, U937 cells; [6]) is reported as over 100 µM.
For `COc1ccc2[nH]c3c(c2c1)C1CCN(C1)C3C(=O)NCc1ccccc1` (centres unmarked) [compound 45, N-benzyl-7-methoxy-3,4,5,10-tetrahydro-1H-2,5-methanoazepino[3,4-b]indole-1-carboxamide hydrochloride], the IC50 [1, 5] was over 200 µM.
With `COc1ccc2[nH]c3c(c2c1)C1CCN(C1)C3C(=O)OC1CCCCC1` (centres unmarked) [hydrochloride] the IC50 (TNFα release, U937 cells; read-out: TNF Release Assay Avg. IC50, LPS 100 ng/ml, 4 hrs, differentiated U937 cells, listed as 38, hydrochloride) was 59.1 µM.
Work on `COc1ccc2[nH]c3c(c2c1)C1CCN(C1)C3C(=O)N(C)C` (centres unmarked) [compound 46, 7-methoxy-N,N-dimethyl-3,4,5,10-tetrahydro-1H-2,5-methanoazepino[3,4-b]indole-1-carboxamide] yielded an IC50 [1, 5] of over 200 µM and an IC50 (TNFα release, U937 cells; [6]) of over 100 µM.
`COc1ccc2[nH]c3c(c2c1)C1CCN(C1)C3C(=O)OCC(C)(C)C` (centres unmarked) [hydrochloride] showed an IC50 [1, 5] of 20.6 µM.
For `CNC(=O)C1c2[nH]c3ccc(OC)cc3c2C2CCN1C2` (centres unmarked) [compound 44, 7-methoxy-N-methyl-3,4,5,10-tetrahydro-1H-2,5-methanoazepino[3,4-b]indole-1-carboxamide], the IC50 (TNFα release, U937 cells; [6]) was over 100 µM.
Work on `COCCNC(=O)C1c2[nH]c3ccc(OC)cc3c2C2CCN1C2` (centres unmarked) [compound 49, 7-methoxy-N-(2-methoxyethyl)-3,4,5,10-tetrahydro-1H-2,5-methanoazepino[3,4-b]indole-1-carboxamide] yielded an IC50 (TNFα release, U937 cells; [6]) of over 100 µM.
Work on `COCCOC(=O)C1c2[nH]c3ccc(OC)cc3c2C2CCN1C2` (centres unmarked) [trifluoroacetate] yielded an IC50 [1, 5] of 6.49 µM.
Compound `COc1ccc2[nH]c3c(c2c1)C1CCN(C1)C3C(=O)OC(C)(C)C` (centres unmarked) [compound 41, tert-butyl 7-methoxy-3,4,5,10-tetrahydro-1H-2,5-methanoazepino[3,4-b]indole-1-carboxylate] has an IC50 [1, 4] of 112 µM and an IC50 (TNFα release, U937 cells; [3]) of over 100 µM.
With `COCCOC(=O)C1c2[nH]c3ccc(OC)cc3c2C2CCN1C2` (centres unmarked) the IC50 [1, 5] was 4.72 µM and 4.96 µM and the IC50 (TNFα release, U937 cells; read-out: TNF Release Assay Avg. IC50, LPS 100 ng/ml, 4 hrs, differentiated U937 cells, listed as 15) was 3.58 µM.
With `COc1ccc2[nH]c3c(c2c1)C1CCN(C1)C3C(=O)OCCO` (centres unmarked) the IC50 [1, 5] was 5.64 µM and the IC50 (TNFα release, U937 cells; [3]) was over 100 µM.
For `CCCCCCOC(=O)C1c2[nH]c3ccc(OC)cc3c2C2CCN1C2` (centres unmarked) [trifluoroacetate], the IC50 [1, 5] was 29.7 µM.
For `COc1ccc2[nH]c3c(c2c1)C1CCN(C1)C3C(=O)OCCSC` (centres unmarked), the IC50 [1, 5] was 4.4 µM.
In the case of `C[S+]([O-])c1ccc(-c2nc(-c3ccncc3)c(-c3ccc(F)cc3)[nH]2)cc1` (centres unmarked) [SB203580], the “development of collagen-induced arthritis” value [2] is given as “inhibit the development”, the mortality (endotoxin-induced shock) is given as “reduce mortality” and the “inhibition of activation of MK-2” value (MK-2) is given as “inhibit activation”. The “development of adjuvant arthritis” value (adjuvant arthritis) was “inhibit the development”.
For `COc1ccc2[nH]c3c(c2c1)C1CCN(C1)C3C(=O)N(C)OC` (centres unmarked) [trifluoroacetate], the IC50 [1, 5] was 91 µM and 98.2 µM.
For `CSc1ccc2[nH]c3c(c2c1)C1CCN(C1)C3C(=O)O` (centres unmarked) [No. 4, 7-(methylthio)-3,4,5,10-tetrahydro-1H-2,5-methanoazepino[3,4-b]indole-1-carboxylic acid], the IC50 (TNFα release, U937 cells; LPS 100 ng/ml, 4 hrs, differentiated U937 cells, read-out: TNF Release Assay Avg. IC50) was over 100 µM.
In the case of `O=C(OCc1ccccc1)C1c2[nH]c3ccc(OCc4ccccc4)cc3c2C2CCN1C2` (centres unmarked) [compound 47, benzyl 7-(benzyloxy)-3,4,5,10-tetrahydro-1H-2,5-methanoazepino[3,4-b]indole-1-carboxylate trifluoroacetate], the IC50 [1, 4] is reported as over 200 µM and the IC50 (TNFα release, U937 cells; [6]) is reported as 76.7 µM.
`COc1ccc2[nH]c3c(c2c1)C1CCN(C1)C3C(=O)OC1CCCCC1` (centres unmarked) [trifluoroacetate] gave an IC50 [1, 5] of 45.2 µM and an IC50 (TNFα release, U937 cells; read-out: TNF Release Assay Avg. IC50, LPS 100 ng/ml, 4 hrs, differentiated U937 cells, listed as 37, trifluoroacetate) of 50.4 µM.
`COCCOC(=O)C1c2[nH]c3ccc(O)cc3c2C2CCN1C2` (centres unmarked) [trifluoroacetate] showed an IC50 [1, 5] of 6.88 µM.
